Experimental data published in ChEMBL document CHEMBL3259702, “Discovery of GS-9973, a selective and orally efficacious inhibitor of spleen tyrosine kinase” (J Med Chem, 2014).
Converted amounts (≈) assume the structure as drawn. Values belong to the compound of their own block, whether it stands above or below them.

Assays:
[1] = biological target: T1, Tyrosine-protein kinase SYK (Homo sapiens, UniProt P43405)
Description: Inhibition of full length Syk (unknown origin) using biotinylated peptide substrate

[2] = biological target: T1, Tyrosine-protein kinase SYK; remark: listed apart in the source
Description: Inhibition of Syk in antihuman IgM-stimulated human Ramos cells assessed as decrease in BCR-mediated BLNK phosphorylation by cellular assay

[3] = biological target: T1, Tyrosine-protein kinase SYK; remark: listed apart in the source
Description: Inhibition of Syk in goat antihuman IgE-induced CD63 expression in human whole blood by FACS analysis

[4] = Clearance in human liver microsomes at 3 uM by LC/MS/MS analysis; type: ADME
Cytochrome P450 1A2 = biological target: T2, Cytochrome P450 1A2 (Homo sapiens, UniProt P05177); assay: Inhibition of CYP1A2 (unknown origin); type: ADME
T2 sequence (P05177 whole entry): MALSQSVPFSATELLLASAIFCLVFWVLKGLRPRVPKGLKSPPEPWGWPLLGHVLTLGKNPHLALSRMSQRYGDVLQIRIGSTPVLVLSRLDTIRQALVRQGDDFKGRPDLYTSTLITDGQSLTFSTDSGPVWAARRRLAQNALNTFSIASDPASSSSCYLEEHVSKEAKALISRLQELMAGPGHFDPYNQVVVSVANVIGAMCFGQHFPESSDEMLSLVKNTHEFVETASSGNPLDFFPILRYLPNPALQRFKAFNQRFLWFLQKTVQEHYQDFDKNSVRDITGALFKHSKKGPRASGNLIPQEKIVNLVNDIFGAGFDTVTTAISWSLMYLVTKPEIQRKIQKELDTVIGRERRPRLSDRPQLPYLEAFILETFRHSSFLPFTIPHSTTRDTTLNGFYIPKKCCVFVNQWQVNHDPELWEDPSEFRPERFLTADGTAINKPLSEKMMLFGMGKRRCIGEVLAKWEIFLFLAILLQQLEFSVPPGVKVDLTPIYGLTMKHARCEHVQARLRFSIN

Cytochrome P450 2C9 = Cytochrome P450 2C9 (Homo sapiens, UniProt P11712); assay: Inhibition of CYP2C9 (unknown origin); type: ADME
Cytochrome P450 2C19 = Cytochrome P450 2C19 (Homo sapiens, UniProt P33261); assay: Inhibition of CYP2C19 (unknown origin); type: ADME
Cytochrome P450 2D6 = Cytochrome P450 2D6 (Homo sapiens, UniProt P10635); assay: Inhibition of CYP2D6 (unknown origin); type: ADME
[5] = Unbound fraction in human plasma; type: ADME, cell-free
[6] = Solubility of the compound in crystalline form in simulated intestinal fluid under fed condition; type: physicochemical
[7] = Solubility of the compound in crystalline form in simulated intestinal fluid under fasted condition; type: physicochemical
[8] = biological target: Tyrosine-protein kinase SYK (Rattus norvegicus, UniProt Q64725); assay: In vitro inhibition of Syk phosphorylation in rat whole blood; type: tissue-based
Rattus norvegicus [9] = assay: Antiinflammatory activity in po dosed Lewis rat collagen-induced arthritis model assessed as disease parameter measured as body weight treated twice daily on arthritic days 0 to 7
Rattus norvegicus [10] = assay: Antiinflammatory activity in po dosed Lewis rat collagen-induced arthritis model assessed as disease parameter measured as ankle diameter treated twice daily on arthritic days 0 to 7
Rattus norvegicus [11] = assay: Antiinflammatory activity in po dosed Lewis rat collagen-induced arthritis model assessed as disease parameter measured as ankle inflammation treated twice daily on arthritic days 0 to 7 by histological analysis
Rattus norvegicus [12] = assay: Antiinflammatory activity in po dosed Lewis rat collagen-induced arthritis model assessed as disease parameter measured as knee inflammation treated twice daily on arthritic days 0 to 7 by histological analysis
Rattus norvegicus [13] = assay: Antiinflammatory activity in po dosed Lewis rat collagen-induced arthritis model assessed as disease parameter measured as peritosteal bone width treated twice daily on arthritic days 0 to 7 by histological analysis
[14] = Half life in rat liver microsomes at 3 uM by LC/MS/MS analysis; type: ADME
[15] = Half life in dog liver microsomes at 3 uM by LC/MS/MS analysis; type: ADME, Canis lupus familiaris
[16] = Half life in human liver microsomes at 3 uM by LC/MS/MS analysis; type: ADME
[17] = Clearance in Sprague-Dawley rat at 0.4 mg/kg, iv; type: ADME, organism-based; set-up: dose 0.4 mg/kg, route intravenous; settings: in vivo
[18] = Clearance in non-naive beagle dog at 0.4 mg/kg, iv; type: ADME, organism-based, Canis lupus familiaris; set-up: dose 0.4 mg/kg, route intravenous; settings: in vivo
[19] = Volume of distribution at steady state in Sprague-Dawley rat at 0.4 mg/kg, iv; type: ADME, organism-based; set-up: dose 0.4 mg/kg, route intravenous; settings: in vivo, read-out: Vdss
[20] = Volume of distribution at steady state in non-naive beagle dog at 0.4 mg/kg, iv; type: ADME, organism-based, Canis lupus familiaris; set-up: dose 0.4 mg/kg, route intravenous; settings: in vivo, read-out: Vdss
[21] = Oral bioavailability in Sprague-Dawley rat at 1 mg/kg; type: ADME, organism-based; settings: in vivo
[22] = Oral bioavailability in non-naive beagle dog at 1 mg/kg; type: ADME, organism-based, Canis lupus familiaris; settings: in vivo
[23] = Plasma protein binding in Sprague-Dawley rat at 1 mg/kg, po after 24 hrs by LC-MS/MS analysis; type: ADME, organism-based; set-up: dose 1 mg/kg, route oral; settings: read-out: PPB (converted)
[24] = Plasma protein binding in non-naive beagle dog at 1 mg/kg, po after 24 hrs by LC-MS/MS analysis; type: ADME, organism-based, Canis lupus familiaris; set-up: dose 1 mg/kg, route oral; settings: read-out: PPB (converted)
[25] = Plasma protein binding in human at 1 mg/kg, po after 24 hrs by LC-MS/MS analysis; type: ADME, organism-based; set-up: dose 1 mg/kg, route oral; settings: read-out: PPB (converted)
[26] = Apparent permeability from apical to basolateral side in human Caco2 cells at 5 uM; type: ADME, cell-based; settings: Caco-2
[27] = Apparent permeability from basolateral to apical side in human Caco2 cells at 5 uM; type: ADME, cell-based; settings: Caco-2
[28] = biological target: Tyrosine-protein kinase JAK2 (Homo sapiens, UniProt O60674); assay: Inhibition of Jak2 in erythropoietin-stimulated human TF1 cells assessed as assessed as phospho-Stat5 after 1 hr incubation; type: cell-based, TF-1
[29] = biological target: Mast/stem cell growth factor receptor Kit (Mus musculus, UniProt P05532); assay: Inhibition of cKit in stem cell factor-stimulated bone marrow derived mouse mast cells assessed as phosphorylation after 1 hr incubation
[30] = biological target: Proto-oncogene tyrosine-protein kinase receptor Ret (Homo sapiens, UniProt P07949); assay: Inhibition of Ret in human […] cells assessed as assessed as phosphorylation after 1 hr incubation; type: cell-based
[31] = biological target: Vascular endothelial growth factor receptor 2 (Homo sapiens, UniProt P35968); assay: Inhibition of KDR in VEGF-stimulated HUVEC assessed as phosphorylation after 1 hr incubation
[32] = Oral bioavailability in Sprague-Dawley rat at 10 mg/kg; type: ADME, organism-based; settings: in vivo
[33] = Clearance in Sprague-Dawley rat at 10 mg/kg, po; type: ADME, organism-based; set-up: dose 10 mg/kg, route oral; settings: in vivo
[34] = Lipophilicity, change in log P of the compound; settings: octanol/water

Mast/stem cell growth factor receptor Kit, sequence (P05532 whole entry): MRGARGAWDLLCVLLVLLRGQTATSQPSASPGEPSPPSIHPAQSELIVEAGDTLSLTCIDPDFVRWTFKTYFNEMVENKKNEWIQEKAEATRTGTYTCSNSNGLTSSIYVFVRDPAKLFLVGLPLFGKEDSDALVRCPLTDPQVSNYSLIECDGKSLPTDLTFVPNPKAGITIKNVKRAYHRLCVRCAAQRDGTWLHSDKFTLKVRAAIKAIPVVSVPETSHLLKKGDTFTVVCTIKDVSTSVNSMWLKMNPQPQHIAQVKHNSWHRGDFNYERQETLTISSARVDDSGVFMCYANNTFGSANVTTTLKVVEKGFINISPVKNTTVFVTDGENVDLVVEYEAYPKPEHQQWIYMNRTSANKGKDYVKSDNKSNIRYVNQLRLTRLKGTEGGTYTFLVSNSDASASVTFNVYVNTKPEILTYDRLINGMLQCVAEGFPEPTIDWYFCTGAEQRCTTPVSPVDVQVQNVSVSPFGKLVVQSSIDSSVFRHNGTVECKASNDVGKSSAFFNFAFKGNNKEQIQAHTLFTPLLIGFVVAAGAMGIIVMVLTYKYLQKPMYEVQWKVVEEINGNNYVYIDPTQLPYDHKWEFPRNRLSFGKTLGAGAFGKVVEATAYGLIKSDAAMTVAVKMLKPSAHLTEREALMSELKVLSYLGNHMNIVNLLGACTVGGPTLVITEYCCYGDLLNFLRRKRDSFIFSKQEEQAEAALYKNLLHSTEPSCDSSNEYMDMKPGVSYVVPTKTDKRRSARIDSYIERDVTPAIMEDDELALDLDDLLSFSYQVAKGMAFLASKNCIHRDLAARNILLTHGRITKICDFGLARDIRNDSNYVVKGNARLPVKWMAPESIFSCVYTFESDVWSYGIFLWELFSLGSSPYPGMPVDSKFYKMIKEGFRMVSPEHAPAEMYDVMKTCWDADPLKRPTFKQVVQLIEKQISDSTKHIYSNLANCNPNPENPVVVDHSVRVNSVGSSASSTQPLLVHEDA
Proto-oncogene tyrosine-protein kinase receptor Ret, sequence (P07949 whole entry): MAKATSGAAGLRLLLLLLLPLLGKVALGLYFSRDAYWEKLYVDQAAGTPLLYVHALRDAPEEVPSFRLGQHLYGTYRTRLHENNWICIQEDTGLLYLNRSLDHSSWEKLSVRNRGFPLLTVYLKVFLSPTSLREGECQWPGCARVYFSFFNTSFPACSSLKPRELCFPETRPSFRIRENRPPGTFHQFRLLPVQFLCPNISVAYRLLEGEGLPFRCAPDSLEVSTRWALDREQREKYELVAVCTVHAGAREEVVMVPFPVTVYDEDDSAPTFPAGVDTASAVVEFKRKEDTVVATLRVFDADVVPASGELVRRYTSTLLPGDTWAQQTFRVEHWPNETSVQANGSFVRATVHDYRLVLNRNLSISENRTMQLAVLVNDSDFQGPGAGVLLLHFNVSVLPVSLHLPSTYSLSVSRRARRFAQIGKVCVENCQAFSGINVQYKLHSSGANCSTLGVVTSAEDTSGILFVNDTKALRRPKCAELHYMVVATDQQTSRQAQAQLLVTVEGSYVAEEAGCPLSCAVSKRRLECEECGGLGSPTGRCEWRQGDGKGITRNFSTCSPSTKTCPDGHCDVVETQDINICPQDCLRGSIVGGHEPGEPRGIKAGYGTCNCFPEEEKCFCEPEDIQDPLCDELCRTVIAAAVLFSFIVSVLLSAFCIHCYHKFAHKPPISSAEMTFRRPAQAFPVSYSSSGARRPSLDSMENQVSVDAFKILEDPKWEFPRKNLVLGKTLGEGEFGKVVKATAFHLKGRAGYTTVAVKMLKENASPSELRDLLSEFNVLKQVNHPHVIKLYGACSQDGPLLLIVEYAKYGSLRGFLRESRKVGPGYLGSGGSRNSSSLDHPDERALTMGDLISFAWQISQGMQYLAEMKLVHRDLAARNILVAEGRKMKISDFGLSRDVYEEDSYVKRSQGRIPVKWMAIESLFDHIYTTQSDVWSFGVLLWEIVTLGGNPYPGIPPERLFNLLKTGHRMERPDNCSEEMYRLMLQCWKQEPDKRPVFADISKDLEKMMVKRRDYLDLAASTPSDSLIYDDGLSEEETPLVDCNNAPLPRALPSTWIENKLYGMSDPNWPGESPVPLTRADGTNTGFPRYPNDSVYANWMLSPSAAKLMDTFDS
Tyrosine-protein kinase JAK2, sequence (O60674 whole entry): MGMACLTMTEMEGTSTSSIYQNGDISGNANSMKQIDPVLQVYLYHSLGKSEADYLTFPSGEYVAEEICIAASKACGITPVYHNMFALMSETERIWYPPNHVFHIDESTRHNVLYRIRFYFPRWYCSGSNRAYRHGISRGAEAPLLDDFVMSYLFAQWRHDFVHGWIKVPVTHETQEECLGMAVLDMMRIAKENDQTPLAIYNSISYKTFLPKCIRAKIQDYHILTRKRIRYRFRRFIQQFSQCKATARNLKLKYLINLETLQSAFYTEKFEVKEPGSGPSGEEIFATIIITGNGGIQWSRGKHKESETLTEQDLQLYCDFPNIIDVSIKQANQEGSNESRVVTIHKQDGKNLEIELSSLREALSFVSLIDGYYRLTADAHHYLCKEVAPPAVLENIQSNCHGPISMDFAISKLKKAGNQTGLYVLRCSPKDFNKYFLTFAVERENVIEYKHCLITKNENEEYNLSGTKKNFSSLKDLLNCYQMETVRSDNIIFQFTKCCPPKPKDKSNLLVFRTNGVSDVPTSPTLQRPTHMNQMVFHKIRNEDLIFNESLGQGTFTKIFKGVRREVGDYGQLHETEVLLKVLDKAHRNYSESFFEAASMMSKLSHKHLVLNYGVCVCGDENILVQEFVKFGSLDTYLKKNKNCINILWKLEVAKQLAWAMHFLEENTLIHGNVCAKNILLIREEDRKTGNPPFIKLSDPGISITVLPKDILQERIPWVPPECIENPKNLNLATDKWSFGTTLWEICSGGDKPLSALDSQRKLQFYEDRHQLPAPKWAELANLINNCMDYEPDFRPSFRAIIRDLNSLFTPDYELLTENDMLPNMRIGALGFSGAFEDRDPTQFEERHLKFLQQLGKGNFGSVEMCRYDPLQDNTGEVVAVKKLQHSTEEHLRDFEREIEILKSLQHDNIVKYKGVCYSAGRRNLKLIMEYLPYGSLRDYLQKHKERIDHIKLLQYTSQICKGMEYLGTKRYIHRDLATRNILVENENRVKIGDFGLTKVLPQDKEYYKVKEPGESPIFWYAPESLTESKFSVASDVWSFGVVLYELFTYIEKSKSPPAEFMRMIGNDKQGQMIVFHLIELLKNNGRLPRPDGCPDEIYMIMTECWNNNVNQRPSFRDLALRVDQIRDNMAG
Vascular endothelial growth factor receptor 2, sequence (P35968 whole entry): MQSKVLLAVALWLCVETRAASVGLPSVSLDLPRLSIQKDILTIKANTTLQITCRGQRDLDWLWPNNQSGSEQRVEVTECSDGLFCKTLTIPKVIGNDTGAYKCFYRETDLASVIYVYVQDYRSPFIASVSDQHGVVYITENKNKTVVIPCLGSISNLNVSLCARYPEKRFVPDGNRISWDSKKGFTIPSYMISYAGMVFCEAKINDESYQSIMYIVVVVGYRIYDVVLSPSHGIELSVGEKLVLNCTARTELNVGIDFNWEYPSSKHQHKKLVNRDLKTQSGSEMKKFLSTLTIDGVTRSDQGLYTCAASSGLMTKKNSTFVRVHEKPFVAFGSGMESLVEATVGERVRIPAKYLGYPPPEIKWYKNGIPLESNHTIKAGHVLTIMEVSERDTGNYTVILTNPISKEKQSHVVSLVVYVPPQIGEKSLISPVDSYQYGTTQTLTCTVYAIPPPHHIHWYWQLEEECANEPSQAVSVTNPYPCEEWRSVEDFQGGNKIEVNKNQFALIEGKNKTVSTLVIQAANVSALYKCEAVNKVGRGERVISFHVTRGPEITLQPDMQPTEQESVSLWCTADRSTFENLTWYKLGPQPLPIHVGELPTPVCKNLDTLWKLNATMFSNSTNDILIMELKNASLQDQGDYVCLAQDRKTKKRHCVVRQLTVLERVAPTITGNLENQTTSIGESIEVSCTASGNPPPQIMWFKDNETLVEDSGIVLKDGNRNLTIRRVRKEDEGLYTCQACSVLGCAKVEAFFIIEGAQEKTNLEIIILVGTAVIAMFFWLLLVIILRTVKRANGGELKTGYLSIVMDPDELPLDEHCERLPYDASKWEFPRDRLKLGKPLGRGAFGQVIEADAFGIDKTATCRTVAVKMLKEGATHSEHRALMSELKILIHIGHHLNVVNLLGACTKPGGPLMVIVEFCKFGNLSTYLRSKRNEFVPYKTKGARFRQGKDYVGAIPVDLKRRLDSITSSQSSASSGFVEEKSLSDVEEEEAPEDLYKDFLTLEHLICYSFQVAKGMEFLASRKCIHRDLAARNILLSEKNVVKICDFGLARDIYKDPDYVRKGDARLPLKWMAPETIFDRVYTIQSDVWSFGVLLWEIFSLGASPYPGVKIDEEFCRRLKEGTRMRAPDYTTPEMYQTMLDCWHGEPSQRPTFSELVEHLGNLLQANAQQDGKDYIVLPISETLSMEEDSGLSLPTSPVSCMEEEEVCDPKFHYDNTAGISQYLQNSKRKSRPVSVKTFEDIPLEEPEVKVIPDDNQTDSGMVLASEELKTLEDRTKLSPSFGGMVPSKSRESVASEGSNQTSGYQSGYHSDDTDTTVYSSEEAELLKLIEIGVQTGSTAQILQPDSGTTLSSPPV
Cytochrome P450 2C19, sequence (P33261 whole entry): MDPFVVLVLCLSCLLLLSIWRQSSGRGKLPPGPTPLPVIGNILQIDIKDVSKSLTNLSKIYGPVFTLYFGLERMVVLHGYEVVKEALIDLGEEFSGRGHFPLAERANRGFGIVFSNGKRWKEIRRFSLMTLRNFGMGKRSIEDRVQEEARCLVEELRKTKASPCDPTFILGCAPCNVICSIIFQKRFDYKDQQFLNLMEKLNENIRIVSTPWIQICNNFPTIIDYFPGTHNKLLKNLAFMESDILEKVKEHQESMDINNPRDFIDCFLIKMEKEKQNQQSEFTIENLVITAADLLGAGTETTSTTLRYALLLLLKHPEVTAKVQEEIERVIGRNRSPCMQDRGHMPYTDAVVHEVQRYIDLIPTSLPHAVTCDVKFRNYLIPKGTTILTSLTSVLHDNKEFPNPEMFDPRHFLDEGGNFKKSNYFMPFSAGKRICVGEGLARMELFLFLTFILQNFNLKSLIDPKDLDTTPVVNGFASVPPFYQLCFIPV

IC50 [1]: 3.9 nM
EC50 [2]: 80 nM
EC50 [3]: 1260 nM
SMILES: CC1(O)CN(c2ccc(Nc3nc(-c4ccc5cn[nH]c5c4)cn4ccnc34)cc2)C1

CLhep predicted at 3 µM [4]: 2 mL/min/kg
IC50 [1]: 3.8 nM
EC50 [2]: 2370 nM
EC50 [3]: > 10000 nM
SMILES: c1cn2cc(-c3ccc4cn[nH]c4c3)nc(Nc3ccc(C4CCOCC4)cc3)c2n1

IC50 [1]: 8.5 nM
EC50 [2]: 374 nM
SMILES: COc1cccc(Nc2nc(-c3ccc4cn[nH]c4c3)cn3ccnc23)c1

IC50 (Cytochrome P450 1A2): > 10000 nM
IC50 (Cytochrome P450 2C9): > 10000 nM
IC50 (Cytochrome P450 2C19): > 10000 nM
IC50 (Cytochrome P450 2D6): > 10000 nM
fraction unbound [5]: 0.027
solubility [6]: 16 µM (≈ 6.58 µg/mL)
solubility [7]: 2 µM (≈ 0.823 µg/mL)
EC50 [8]: 1900 nM
CLhep predicted at 3 µM [4]: 4.83 mL/min/kg
half-life at 3 µM [14]: 35 min
half-life at 3 µM [15]: 23.4 min
half-life at 3 µM [16]: 98.6 min
clearance [17]: 4.5 mL/min/kg
clearance [18]: 13.3 mL/min/kg
Vd [19]: 0.52 L/kg
Vd [20]: 1.41 L/kg
bioavailability [21]: 67%
bioavailability [22]: 53%
fraction unbound at 24 h [23]: 0.008
fraction unbound at 24 h [24]: 0.072
fraction unbound at 24 h [25]: 0.029
Papp A→B at 5 µM [26]: 3.2 ×10⁻⁶ cm/s
Papp B→A at 5 µM [27]: 1.95 ×10⁻⁶ cm/s
EC50 [28]: 453 nM
EC50 [29]: 445 nM
EC50 [30]: > 1000 nM
EC50 [31]: > 1000 nM
SMILES: c1cn2cc(-c3ccc4cn[nH]c4c3)nc(Nc3ccc(N4CCOCC4)cc3)c2n1 [ENTOSPLETINIB]
ED50 (Rattus norvegicus [9]): 3.9 mg/kg
ED50 (Rattus norvegicus [10]): 2.1 mg/kg
ED50 (Rattus norvegicus [11]): 2.8 mg/kg
ED50 (Rattus norvegicus [12]): 1.2 mg/kg
ED50 (Rattus norvegicus [13]): 3 mg/kg

bioavailability [32]: 22%
CL/F [33]: 50.8 mL/min/kg
ΔlogP [34]: 1.4
SMILES: COc1ccc(Nc2nc(-c3ccc(C(N)=O)cc3)cn3ccnc23)cc1OC

EC50 [29]: 46 nM
SMILES: COc1cc(Nc2ncc(F)c(Nc3ccc4c(n3)NC(=O)C(C)(C)O4)n2)cc(OC)c1OC [R-406]

CLhep predicted at 3 µM [4]: 10 mL/min/kg
IC50 [1]: 2.1 nM
EC50 [2]: 40 nM
EC50 [3]: > 10000 nM
SMILES: O=S1(=O)CCN(c2ccc(Nc3nc(-c4ccc5cn[nH]c5c4)cn4ccnc34)cc2)CC1

CLhep predicted at 3 µM [4]: 12.5 mL/min/kg
SMILES: COc1cc(Nc2nc(-c3ccc4cn[nH]c4c3)cn3ccnc23)ccc1N1CCOCC1

ΔlogP [34]: 1.4
SMILES: COc1ccc(Nc2nc(-c3cccc(C(N)=O)c3)cn3ccnc23)cc1OC

CLhep predicted at 3 µM [4]: 4.5 mL/min/kg
SMILES: CC1(O)CCN(c2ccc(Nc3nc(-c4ccc5cn[nH]c5c4)cn4ccnc34)cc2)CC1

CLhep predicted at 3 µM [4]: 5 mL/min/kg
IC50 [1]: 23.1 nM
EC50 [2]: 73 nM
SMILES: c1cn2cc(-c3ccc4cn[nH]c4c3)nc(Nc3ccc(N4CCCOCC4)cc3)c2n1

IC50 [1]: 7.6 nM
EC50 [2]: 42 nM
EC50 [3]: 1090 nM
SMILES: CN(CCO)c1ccc(Nc2nc(-c3ccc4cn[nH]c4c3)cn3ccnc23)cc1

CLhep predicted at 3 µM [4]: 8.17 mL/min/kg
SMILES: c1ccc(Nc2nc(-c3ccc4cn[nH]c4c3)cn3ccnc23)cc1

bioavailability [32]: 36%
CL/F [33]: 35 mL/min/kg
SMILES: COc1ccc(Nc2nc(-c3ccc4cn[nH]c4c3)cn3ccnc23)cc1OC
